The target of the test is T1, human PTHR1 receptor (Homo sapiens, UniProt Q03431).
T1 construct: purchased Eurofins HTS030M
T1 sequence (Q03431 27-593): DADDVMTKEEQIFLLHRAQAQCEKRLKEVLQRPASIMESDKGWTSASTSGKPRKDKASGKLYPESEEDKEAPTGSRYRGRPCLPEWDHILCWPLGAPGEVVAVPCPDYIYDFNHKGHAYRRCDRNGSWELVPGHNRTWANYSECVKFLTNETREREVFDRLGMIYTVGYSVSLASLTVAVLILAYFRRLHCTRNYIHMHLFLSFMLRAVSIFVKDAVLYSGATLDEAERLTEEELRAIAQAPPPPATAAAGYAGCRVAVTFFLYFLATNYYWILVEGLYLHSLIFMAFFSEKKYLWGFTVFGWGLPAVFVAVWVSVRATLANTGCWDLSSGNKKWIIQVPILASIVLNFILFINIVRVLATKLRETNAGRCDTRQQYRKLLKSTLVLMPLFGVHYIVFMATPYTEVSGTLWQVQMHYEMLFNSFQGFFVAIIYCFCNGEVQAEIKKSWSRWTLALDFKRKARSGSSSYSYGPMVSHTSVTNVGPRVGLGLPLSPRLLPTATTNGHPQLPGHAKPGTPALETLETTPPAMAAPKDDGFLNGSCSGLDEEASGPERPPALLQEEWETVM
Nature of the test: Competitive antagonist binding assay for hPTH-R1 (radioactive competition binding, SPA beads). The note with it: human PTHR1 membranes, [125I]-[Nle8,18,Tyr34]-PTH(1-34) 0.2 nM, 90 minutes at room temperature; read-out: hPTHR1 Ki. The method, boiled down:
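Displacement of 0.2 nM radioiodinated [Nle8,18,Tyr34]-PTH(1-34) from membrane-bound human PTHR1 measured by scintillation proximity after 90 min at room temperature. Compounds typically 0-10,000 nM final, pH 7.4 HEPES/Mg/Ca buffer with BSA and detergent. Ki calculated from competition data.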

In the case of `CCN1C(=O)N(c2c(F)cc(NCCN3CCOCC3)cc2F)c2cc(C#N)ccc2-c2cc(Cl)cnc21` [1-148, 4-chloro-10-(2,6-difluoro-4-{[2-(morpholin-4-yl)ethyl]amino}phenyl)-8-ethyl-9-oxo-6,8,10-triazatricyclo[9.4.0.0^2,7]pentadeca-1(11),2(7),3,5,12,14-hexaene-13-carbonitrile], the Ki (in general, a dissociation constant, usually derived from enzyme kinetics or from competition with a known ligand) was 100 to 1000 nM.

In the case of `CCN1C(=O)N(c2c(F)cc(NCCNC(C)CO)cc2F)c2cc(C#N)ccc2-c2cc(Cl)cnc21` (stereo not drawn) [1-149, 4-chloro-10-[2,6-difluoro-4-({2-[(1-hydroxypropan-2-yl)amino]ethyl}amino)phenyl]-8-ethyl-9-oxo-6,8,10-triazatricyclo[9.4.0.0^2,7]pentadeca-1(11),2(7),3,5,12,14-hexaene-13-carbonitrile], the Ki is under 100 nM.

For the compound `CCN1C(=O)N(c2c(F)cc(NCCNCCNS(C)(=O)=O)cc2F)c2cc(C#N)ccc2-c2cc(Cl)cnc21` [1-150, N-[2-({2-[(4-{4-chloro-13-cyano-8-ethyl-9-oxo-6,8,10-triazatricyclo[9.4.0.0^2,7]pentadeca-1(11),2(7),3,5,12,14-hexaen-10-yl}-3,5-difluorophenyl)amino]ethyl}amino)ethyl]methanesulfonamide], the Ki is under 100 nM.

For `CCN1C(=O)N(c2c(F)cc(NC[C@@H]3COCCN3)cc2F)c2cc(C#N)ccc2-c2cc(Cl)cnc21` [1-151, 4-chloro-10-[2,6-difluoro-4-({[(3R)-morpholin-3-yl]methyl}amino)phenyl]-8-ethyl-9-oxo-6,8,10-triazatricyclo[9.4.0.0^2,7]pentadeca-1(11),2(7),3,5,12,14-hexaene-13-carbonitrile], the Ki is under 100 nM.

In the case of `CCN1C(=O)N(c2c(F)cc(N3CCN[C@H](CO)C3)cc2F)c2cc(C#N)ccc2-c2cc(Cl)cnc21` [1-152, 4-chloro-10-{2,6-difluoro-4-[(3S)-3-(hydroxymethyl)piperazin-1-yl]phenyl}-8-ethyl-9-oxo-6,8,10-triazatricyclo[9.4.0.0^2,7]pentadeca-1(11),2(7),3,5,12,14-hexaene-13-carbonitrile], the Ki lay in the range of 100 to 1000 nM.

For the compound `CCN1C(=O)N(c2c(F)cc(N3CCN[C@@H](CO)C3)cc2F)c2cc(C#N)ccc2-c2cc(Cl)cnc21` [1-153, 4-chloro-10-{2,6-difluoro-4-[(3R)-3-(hydroxymethyl)piperazin-1-yl]phenyl}-8-ethyl-9-oxo-6,8,10-triazatricyclo[9.4.0.0^2,7]pentadeca-1(11),2(7),3,5,12,14-hexaene-13-carbonitrile], the Ki is under 100 nM.

For `CCN1C(=O)N(c2c(F)cc(NCCNCCC#N)cc2F)c2cc(C#N)ccc2-c2cc(Cl)cnc21` [1-154, 4-chloro-10-[4-({2-[(2-cyanoethyl)amino]ethyl}amino)-2,6-difluorophenyl]-8-ethyl-9-oxo-6,8,10-triazatricyclo[9.4.0.0^2,7]pentadeca-1(11),2(7),3,5,12,14-hexaene-13-carbonitrile], the Ki was under 100 nM.

Turning to `CCN1C(=O)N(c2c(F)cc(NCCN3CCNCC3)cc2F)c2cc(C#N)ccc2-c2cc(Cl)cnc21` [1-155, 4-chloro-10-(2,6-difluoro-4-{[2-(piperazin-1-yl)ethyl]amino}phenyl)-8-ethyl-9-oxo-6,8,10-triazatricyclo[9.4.0.0^2,7]pentadeca-1(11),2(7),3,5,12,14-hexaene-13-carbonitrile], the Ki was under 100 nM.

With `CCN1C(=O)N(c2c(F)cc(NCCNCC(O)CO)cc2F)c2cc(C#N)ccc2-c2cc(Cl)cnc21` (stereo not drawn) [1-156, 4-chloro-10-[4-({2-[(2,3-dihydroxypropyl)amino]ethyl}amino)-2,6-difluorophenyl]-8-ethyl-9-oxo-6,8,10-triazatricyclo[9.4.0.0^2,7]pentadeca-1(11),2(7),3,5,12,14-hexaene-13-carbonitrile], the Ki was under 100 nM.

As for `CCN1C(=O)N(c2c(F)cc(NCCNC(CO)CO)cc2F)c2cc(C#N)ccc2-c2cc(Cl)cnc21` [1-157, 4-chloro-10-[4-({2-[(1,3-dihydroxypropan-2-yl)amino]ethyl}amino)-2,6-difluorophenyl]-8-ethyl-9-oxo-6,8,10-triazatricyclo[9.4.0.0^2,7]pentadeca-1(11),2(7),3,5,12,14-hexaene-13-carbonitrile], the Ki is under 100 nM.

Consider `CCN1C(=O)N(c2c(F)cc(NCC3(CO)CNC3)cc2F)c2cc(C#N)ccc2-c2cc(Cl)cnc21` [1-158, 4-chloro-10-[2,6-difluoro-4-({[3-(hydroxymethyl)azetidin-3-yl]methyl}amino)phenyl]-8-ethyl-9-oxo-6,8,10-triazatricyclo[9.4.0.0^2,7]pentadeca-1(11),2(7),3,5,12,14-hexaene-13-carbonitrile], for which the inhibition constant Ki was in the range of 100 to 1000 nM.

Take `CCN1C(=O)N(c2c(F)cc(N[C@H](C)CNC)cc2F)c2cc(C#N)ccc2-c2cc(Cl)cnc21` [1-159, 4-chloro-10-(2,6-difluoro-4-{[(2R)-1-(methylamino)propan-2-yl]amino}phenyl)-8-ethyl-9-oxo-6,8,10-triazatricyclo[9.4.0.0^2,7]pentadeca-1(11),2(7),3,5,12,14-hexaene-13-carbonitrile]: the Ki was under 100 nM.

Turning to `CCN1C(=O)N(c2c(F)cc(NCCNCC#N)cc2F)c2cc(C#N)ccc2-c2cc(Cl)cnc21` [1-160, 4-chloro-10-[4-({2-[(cyanomethyl)amino]ethyl}amino)-2,6-difluorophenyl]-8-ethyl-9-oxo-6,8,10-triazatricyclo[9.4.0.0^2,7]pentadeca-1(11),2(7),3,5,12,14-hexaene-13-carbonitrile], the Ki fell in the range of 100 to 1000 nM.

With `CCN1C(=O)N(c2c(F)cc(NCCNCCC(N)=O)cc2F)c2cc(C#N)ccc2-c2cc(Cl)cnc21` [1-161, 3-({2-[(4-{4-chloro-13-cyano-8-ethyl-9-oxo-6,8,10-triazatricyclo[9.4.0.0^2,7]pentadeca-1(11),2(7),3,5,12,14-hexaen-10-yl}-3,5-difluorophenyl)amino]ethyl}amino)propanamide], the Ki was under 100 nM.

In the case of `CCN1C(=O)N(c2c(F)cc(NCCNCC(N)=O)cc2F)c2cc(C#N)ccc2-c2cc(Cl)cnc21` [1-162, 2-({2-[(4-{4-chloro-13-cyano-8-ethyl-9-oxo-6,8,10-triazatricyclo[9.4.0.0^2,7]pentadeca-1(11),2(7),3,5,12,14-hexaen-10-yl}-3,5-difluorophenyl)amino]ethyl}amino)acetamide], the Ki was under 100 nM.

For the compound `CC(C)N1C(=O)N(c2c(F)cc(NCCNCCCC(=O)O)cc2F)c2cc(C#N)cc(F)c2-c2cc(F)cnc21` [1-163, 4-{[2-({4-[13-cyano-4,15-difluoro-9-oxo-8-(propan-2-yl)-6,8,10-triazatricyclo[9.4.0.0^2,7]pentadeca-1(15),2(7),3,5,11,13-hexaen-10-yl]-3,5-difluorophenyl}amino)ethyl]amino}butanoic Acid], the Ki is under 100 nM.

As for `CCN1C(=O)N(c2c(F)cc(NCCN3CCC(O)C3)cc2F)c2cc(C#N)ccc2-c2cc(Cl)cnc21` (stereo not drawn) [1-164, 4-chloro-10-(2,6-difluoro-4-{[2-(3-hydroxypyrrolidin-1-yl)ethyl]amino}phenyl)-8-ethyl-9-oxo-6,8,10-triazatricyclo[9.4.0.0^2,7]pentadeca-1(11),2(7),3,5,12,14-hexaene-13-carbonitrile], the Ki is under 100 nM.

As to `CCN1C(=O)N(c2c(F)cc(N[C@@H](C)CNC)cc2F)c2cc(C#N)ccc2-c2cc(Cl)cnc21` [1-165, 4-chloro-10-(2,6-difluoro-4-{[(2S)-1-(methylamino)propan-2-yl]amino}phenyl)-8-ethyl-9-oxo-6,8,10-triazatricyclo[9.4.0.0^2,7]pentadeca-1(11),2(7),3,5,12,14-hexaene-13-carbonitrile], the Ki is under 100 nM.

As to `CCN1C(=O)N(c2c(F)cc(NCCNCCNC(=O)NC)cc2F)c2cc(C#N)ccc2-c2cc(Cl)cnc21` [1-166, 1-[2-({2-[(4-{4-chloro-13-cyano-8-ethyl-9-oxo-6,8,10-triazatricyclo[9.4.0.0^2,7]pentadeca-1(11),2(7),3,5,12,14-hexaen-10-yl}-3,5-difluorophenyl)amino]ethyl}amino)ethyl]-3-methylurea], the Ki is under 100 nM.

On to `CCN1C(=O)N(c2c(F)cc(NCCNCCNC(=O)OC)cc2F)c2cc(C#N)ccc2-c2cc(Cl)cnc21` [1-167, Methyl N-[2-({2-[(4-{4-chloro-13-cyano-8-ethyl-9-oxo-6,8,10-triazatricyclo[9.4.0.0^2,7]pentadeca-1(11),2(7),3,5,12,14-hexaen-10-yl}-3,5-difluorophenyl)amino]ethyl}amino)ethyl]carbamate], for which the Ki is under 100 nM.

For the compound `CCN1C(=O)N(c2c(F)cc(NCCNCCNC(C)=O)cc2F)c2cc(C#N)ccc2-c2cc(Cl)cnc21` [1-168, N-[2-({2-[(4-{4-chloro-13-cyano-8-ethyl-9-oxo-6,8,10-triazatricyclo[9.4.0.0^2,7]pentadeca-1(15),2(7),3,5,11,13-hexaen-10-yl}-3,5-difluorophenyl)amino]ethyl}amino)ethyl]acetamide], the Ki was under 100 nM.

The values above are taken from patent publication US20230159532A1, “PARATHYROID HORMONE (PTH) RECEPTOR ANTAGONISTS AND USES THEREOF” (Crinetics Pharmaceuticals, Inc., priority 2021, published 2023).
